Here are results for two compounds from patent US9469854B2, “Pharmaceutical composition for treating liver diseases” (Academia Sinica, priority 2014, dated 2016).

In one data set the test system is MAT1A. Description: qRT-PCR mRNA expression in HepG2 cells. In kind it is cell-based, human. As for the experimental part: (§1) The human HepG2 cells and HEK 293T cells used in the following examples were originally obtained from the American Tissue Culture Collection (ATCC, USA). The human HCC HepG2 cell line was cultured in Minimum Essential Medium Eagle (Sigma) supplemented with 10% fetal bovine serum (FBS) (Invitrogen), 2.2 g/L of sodium bicarbonate (Sigma), 0.1 mM of non-essential amino acids (Caisson), 1 mM of sodium pyruvate (Invitrogen), and 10 of ml/L penicillin-streptomycin-amphotericin solution (Biological Industries). Human HEK-293T cells were maintained in high-glucose Dulbecco's modified eagle medium (Invitrogen) supplemented with 10% FBS and 3.7 g/L of sodium bicarbonate (Sigma). Both cell lines were cultured at 37° C. and 5% CO2. A 50 mM stock solution of berberine chloride (Sigma-Aldrich) was prepared in dimethyl sulfoxide (DMSO). Cells were treated with 40 μM of berberine chloride or 0.08% DMSO as the control. For induction of lipid droplets formation in cultured cells, 200 μM of oleic acid (Sigma-Aldrich) was added into the culture medium for 24 h. Total RNA was extracted using a TRIZOL reagent (Invitrogen) according to the manufacturer's protocol. The total RNA quantity was measured using a NanoDrop ND-1000 spectrophotometer (Nanodrop Technologies). The total RNA quality and integrity were assayed using an Agilent 2100 bioanalyzer with an RNA 6000 nano kit (Agilent Technologies). Total RNAs (1 μg) were reverse-transcribed into cDNA by using M-MuLV Reverse Transcriptase (Thermo) and Oligo(dT)12-18 primers (Invitrogen) according to the manufacturer's protocol. The cDNA were then used for a real-time PCR with a LightCycler 480 SYBR Green I Master (Roche) by using primers shown in the following Table 1. The gene expression levels were normalized to GAPDH levels. […] Cells were incubated for 24 h or 48 h with a microRNA mimic or inhibitor prior to RNA purification for gene expression analysis, and were incubated for 72 h for protein expression analysis.
On the technique in general: Real-time PCR tracks product formation cycle by cycle.

The test system of a further data set is MAT2B. The data set can be described thus: qRT-PCR mRNA expression in HepG2 cells. In kind it is cell-based, human. How it is done:
as §1

For another data set, the system named is MAT2A. Description: qRT-PCR mRNA expression in HepG2 cells. It is filed as cell-based, human. To be noted: for decrease in mRNA expression of MAT2A: HepG2, 50 nM mimic transfection. How it is done: as §1
Data set [1] deals with ACACB. The data set can be described thus: qRT-PCR mRNA expression in HepG2 cells. It is filed as cell-based, human. As for the experimental part:
as §1

In the next data set the test system is ACACA. The data set can be described thus: qRT-PCR mRNA expression in primary human hepatocytes. In kind it is cell-based. To be noted: PHH. As for the experimental part: (§2) The primary human hepatocytes from Caucasian donors were purchased from Invitrogen and cultured following the manufacturer's instructions. The hepatocytes were thawed and transferred into cryopreserved hepatocytes recovery medium (CM7000, Invitrogen), centrifuging at room temperature, 100×g for 10 min. Then, the hepatocytes were diluted to seeding density with plating medium (CM3000, Invitrogen) and added into collagen I-coated plates (Invitrogen). These plates were incubated at 37° C. for 4-6 hours under 5% CO2 for forming a monolayer. Then, plating medium was replaced by overlay incubation medium (CM4000 and 0.35 mg/mL Geltrex™ Matrix, Invitrogen), and the incubation medium was replaced daily. In the following examples, hepatocytes form 3 to 4 donors were used for experiments. A 50 mM stock solution of berberine chloride (Sigma-Aldrich) was prepared in dimethyl sulfoxide (DMSO). Cells were treated with 40 μM of berberine chloride or 0.08% DMSO as the control. For induction of lipid droplets formation in cultured cells, 200 μM of oleic acid (Sigma-Aldrich) was added into the culture medium for 24 h. Total RNA was extracted using a TRIZOL reagent (Invitrogen) according to the manufacturer's protocol. The total RNA quantity was measured using a NanoDrop ND-1000 spectrophotometer (Nanodrop Technologies). The total RNA quality and integrity were assayed using an Agilent 2100 bioanalyzer with an RNA 6000 nano kit (Agilent Technologies). Total RNAs (1 μg) were reverse-transcribed into cDNA by using M-MuLV Reverse Transcriptase (Thermo) and Oligo(dT)12-18 primers (Invitrogen) according to the manufacturer's protocol. The cDNA were then used for a real-time PCR with a LightCycler 480 SYBR Green I Master (Roche) by using primers shown in the following Table 1. The gene expression levels were normalized to GAPDH levels.

A further data set concerns DGAT2. Described as above. It is filed as cell-based. To be noted: PHH. As for the experimental part:
as §2

A further data set deals with HLCS. Described as above. In kind it is cell-based. How it is done:
as §2

Another data set deals with MTOR. Described as above. In kind it is cell-based. Particulars: for decrease in MTOR expression: 50 nM mimic transfection. As for the experimental part:
as §2

The next data set concerns RPTOR. The description is as above. It is filed as cell-based. Particulars: for decrease in RPTOR expression: 50 nM mimic transfection. As for the experimental part: as §2
Data set [2] has as its system ACACB. The description is as above. In kind it is cell-based. Particulars: PHH. How it is done: as §2
[3] abbreviates: HepG2, 40 μM berberine, up to 8 h.
Where [4] appears, read: HepG2, 50 nM mimic transfection, 48 h.
The mark [5] stands for this setting: 24 h, cells not named in b149 (primary human hepatocytes).

Some results are limits rather than exact numbers.

On to `COc1ccc2cc3[n+](cc2c1OC)CCc1cc2c(cc1-3)OCO2` [berberine], for which the “MAT1A mRNA expression change” value with MAT1A (setting [3]) is “did not change substantially”. Besides, the “MAT2B mRNA expression change” value in the data set with MAT2B (setting [3]) was “did not change substantially”. For the same compound, the “MAT2A mRNA level decrease” value came to 1.8 fold in the data set with MAT2A (HepG2, 40 μM berberine, 2 h vs 0.08% DMSO) and 3.8 fold in the data set on MAT2A (HepG2, 40 μM berberine, 4 h (lowest value) vs 0.08% DMSO). Further, the “MAT2A mRNA level change (given as increase)” value in the data set on MAT2A (HepG2, 40 μM berberine, 8 h vs 0.08% DMSO) amounted to 2.2 fold. The ACACB expression result in the data set on ACACB [1] (HepG2, berberine (data not shown)) is “consistently decreased”. In the data set with ACACA (40 μM berberine, 8 h), this compound came in with an ACACA expression decrease of 2.1 fold. Moreover, the “changes in DGAT2 expression levels” value in the data set with DGAT2 (40 μM berberine, 2-8 h) was “not significant”. The “mRNA expression of HLCS” value in the data set with HLCS (PHH, 40 μM berberine, 4-8 h) is recorded as “decreases”. The “mRNA expression of MTOR” value with MTOR (PHH, 40 μM berberine, 4-8 h) is “decreases”. The “mRNA expression of RPTOR” value with RPTOR (PHH, 40 μM berberine, 4-8 h) was “decreases”. Besides, the “mRNA expression of ACACB” value with ACACB [2] (40 μM berberine, 4-8 h) is listed as “decreases”.

As to “hsa-miR-21-3p (CAACACCAGUCGAUGGGCUGU; listed as RNA, chemistry not given here) [miR-21-3p mimic]”, the “decrease in mRNA expression of MAT1A” value in the data set on MAT1A (setting [4]) was “but not in that of MAT1A”. Moreover, in the data set on MAT2B (setting [4]), the “decrease in mRNA expression of MAT2B” value is > 50%. For the same compound, the “decrease in mRNA expression of MAT2A” value with MAT2A (24 hours) and in the data set with MAT2A (48 h) was > 50% each time. In the data set with ACACB [1] (HepG2, mimic transfection, 24 h), the “decrease in mRNA expression of ACACB” value is given as 50%. For the same compound, the ACACA expression decrease with ACACA (50 nM mimic transfection, 48 h) stood at 1.6 fold. Also, the “decrease in mRNA expression levels of DGAT2” value in the data set with DGAT2 (mimic transfection, 48 h) is 1.5 fold. In addition, the “decrease in HLCS expression” value with HLCS (50 nM mimic transfection, 48 h, cells not given) turned out to be 1.5 fold. The “decrease in MTOR expression” value is given as 1.4 fold in the data set on MTOR (setting [5]) and 2.5 fold with MTOR (48 h, cells not given). The “decrease in RPTOR expression” value is 1.6 fold with RPTOR (setting [5]) and 2.2 fold with RPTOR (48 h, cells not given). In the data set on ACACB [2] (50 nM mimic transfection, 48 h), this compound yielded an ACACB expression decrease of 1.8 fold.
